In patent publication US20080114020A1, “Difluoro-Substituted Imidazopyridines” (Altana Pharma AG, priority 2004, published 2008):

Test system: pentagastrin-stimulated acid secretion of the perfused rat stomach
Settings: anesthetized CD rat, female; dose 1 μmol/kg i.d. (intraduodenal); pentagastrin 1 μg/kg i.v. infusion
Protocol: The abdomen of anesthetized rats (CD rat, female, 200-250 g; 1.5 g/kg i.m. urethane) was opened after tracheotomy by a median upper abdominal incision and a PVC catheter was fixed transorally in the esophagus and another via the pylorus such that the ends of the tubes just projected into the gastric lumen. The catheter leading from the pylorus led outward into the right abdominal wall through a side opening.
After thorough rinsing (about 50-100 ml), warm (37° C.) physiological NaCl solution was continuously passed through the stomach (0.5 ml/min, pH 6.8-6.9; Braun-Unita I). The pH (pH meter 632, glass electrode EA 147; φ=5 mm, Metrohm) and, by titration with a freshly prepared 0.01 N NaOH solution to pH 7 (Dosimat 665 Metrohm), the secreted HCl were determined in the effluent in each case collected at an interval of 15 minutes.
The gastric secretion was stimulated by continuous infusion of […] (=1.65 ml/h) of i.v. pentagastrin (left femoral vein) about 30 min after the end of the operation (i.e. after determination of 2 preliminary fractions). The substances to be tested were administered intraduodenally in a 2.5 ml/kg liquid volume 60 min after the start of the continuous pentagastrin infusion. The body temperature of the animals was kept at a constant 37.8-38° C. by infrared irradiation and heat pads (automatic, stepless control by means of a rectal temperature sensor).

SMILES | Inhibition of acid secretion (%)
Cc1nc2c3c(ccn2c1C)C(c1ccccc1)C(OC(=O)CN(C)C)C(F)(F)O3 [Example 9, (8R,9R)-7,7-Difluoro-2,3-dimethyl-8-(2-dimethylamino-acetyloxy)-9-phenyl-7H-8,9-dihydro-pyrano[2,3-c]imidazo[1,2-a]pyridine] | >85
COCC(=O)O[C@@H]1[C@@H](c2ccccc2)Oc2c(ccn3c(C)c(C)nc23)C1(F)F [Example 8, (8R,9R)-7,7-Difluoro-2,3-dimethyl-8-(2-methoxy-acetyloxy)-9-phenyl-7H-8,9-dihydro-pyrano[2,3-c]imidazo[1,2-a]pyridine] | >85
CC(=O)OC1C(c2ccccc2)c2ccn3c(C)c(C)nc3c2OC1(F)F [Example 2, (8R,9R)-8-Acetoxy-7,7-difluoro-2,3-dimethyl-9-phenyl-7H-8,9-dihydro-pyrano[2,3-c]imidazo[1,2-a]pyridine] | >85
COC(=O)O[C@@H]1[C@@H](c2ccccc2)Oc2c(ccn3c(C)c(C)nc23)C1(F)F [Example 10, (8R,9R)-7,7-Difluoro-2,3-dimethyl-8-(methoxy-carbonyloxy)-9-phenyl-7H-8,9-dihydro-pyrano[2,3-c]imidazo[1,2-a]pyridine] | >85
Cc1nc2c3c(ccn2c1C)C(c1ccccc1)C(O)C(F)(F)O3 [Example 1, (8R,9R)-7,7-Difluoro-2,3-dimethyl-8-hydroxy-9-phenyl-7H-8,9-dihydro-pyrano[2,3-c]imidazo[1,2-a]pyridine] | >85
